Values joined by “and” are separate entries in the source; they are usually repeats but may differ in a detail not shown here. Equal values may be shown once.
Experiments:
wild-type PDIa = target: T1, wild-type PDIa (Homo sapiens, UniProt P07237); assay: MALDI-TOF mass spectrometry with wild-type PDIa; type: binding
T1 construct: made in house; host or cells: Escherichia coli BL21-Gold (DE3)
Excerpt: As mentioned, we synthesized several fluorine-containing analogs of LOC14 (analogs LC-43 and LC-40). Addition of fluorine was the only modification that was tolerated at the ortho position without a complete loss of activity in cells and in targeting PDI in vitro (Table 9). […] We hypothesized that these compounds might be binding to PDI covalently, and therefore would not show heat evolution by calorimetry. To test this hypothesis, we conducted MALDI-TOF mass-spectrometry experiments with wild-type PDIa and LC-43. […] This confirmed that LC-43 did indeed bind to PDIa, and that this binding was […]. The lack of binding by ITC might be again caused because LC-43 interaction with PDI is entropy-driven with small enthalpic changes. […] Additionally, we evaluated LC-43 using a genetically encoded redox reporter transfected into neurons. […] In contrast, treatment with the non-selective reducing agent dithiothreitol (DTT) produces an immediate and dramatic reduction in the roGFP2 fluorescence ratio that leads rapidly to cell degeneration and death (FIG. 16D). […] This single fluorine atom substitution in LOC14 structure seems to be an improvement in the design of compounds with more favorable drug properties.

15N-labeled PDIa = target: T2, 15N-labeled PDIa (Homo sapiens, UniProt P07237); assay: 1H-15N HSQC NMR of PDIa; type: binding
T2 construct: His6 (N, cleaved yes); made in house; host or cells: Escherichia coli BL21-Gold (DE3), M9 minimal medium with 15NH4Cl
T2 sequence (P07237 18-134): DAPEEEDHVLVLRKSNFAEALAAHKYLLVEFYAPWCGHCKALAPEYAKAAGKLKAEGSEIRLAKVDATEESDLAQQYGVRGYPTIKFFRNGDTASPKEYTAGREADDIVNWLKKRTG
Description: The ^1H-^15N HSQC spectra were performed on Bruker Avance III 500 Ascend (500 MHz) spectrometers at 300 K. The uniformly ^15N-labeled PDIa was dissolved at 50 μM or 100 μM in 90% H2O/10% D20 (v/v), pH 5.1. The ^1H carrier frequency was positioned at the water resonance. The ^15N carrier frequency was positioned at 115 ppm. The spectral width in the ^1H dimension was 7500 Hz and the width in ω1 (^15N) dimension was 1824.6 Hz. Suppression of water signal was accomplished using the WATERGATE sequence. Heteronuclear decoupling was accomplished using GARP decoupling scheme.

five isoforms of CYP450 = assay: CYP450 inhibition, five isoforms; type: in vitro ADME
GR = target: T3, GR (Homo sapiens, UniProt P04150); assay: Safety47 panel nuclear hormone receptor GR; type: cell-based; details: 3 μM
T3 construct: CEREP (CRO panel)
T3 sequence (P04150 whole entry): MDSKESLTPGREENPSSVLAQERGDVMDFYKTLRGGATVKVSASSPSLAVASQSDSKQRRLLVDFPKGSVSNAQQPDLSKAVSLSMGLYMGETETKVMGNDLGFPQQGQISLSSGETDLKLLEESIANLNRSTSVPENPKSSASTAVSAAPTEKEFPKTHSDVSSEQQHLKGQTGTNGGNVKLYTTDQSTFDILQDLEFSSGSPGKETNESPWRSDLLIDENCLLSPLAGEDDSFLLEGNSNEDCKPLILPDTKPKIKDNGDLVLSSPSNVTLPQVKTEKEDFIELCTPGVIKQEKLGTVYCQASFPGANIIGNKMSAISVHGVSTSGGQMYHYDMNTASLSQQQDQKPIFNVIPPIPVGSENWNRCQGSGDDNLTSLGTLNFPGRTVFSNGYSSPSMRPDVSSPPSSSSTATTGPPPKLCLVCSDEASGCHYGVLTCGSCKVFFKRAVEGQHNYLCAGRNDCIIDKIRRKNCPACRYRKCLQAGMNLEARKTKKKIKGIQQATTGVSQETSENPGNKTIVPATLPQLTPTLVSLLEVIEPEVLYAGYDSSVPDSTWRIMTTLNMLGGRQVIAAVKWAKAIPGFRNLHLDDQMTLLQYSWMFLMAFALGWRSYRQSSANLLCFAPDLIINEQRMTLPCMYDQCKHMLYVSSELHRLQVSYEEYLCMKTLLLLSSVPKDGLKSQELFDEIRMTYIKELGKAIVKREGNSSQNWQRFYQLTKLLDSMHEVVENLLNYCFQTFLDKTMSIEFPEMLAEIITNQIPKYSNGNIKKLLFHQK
Excerpt: (§1) LOC14 was also submitted for testing in CEREP's Safety47 panel. CEREP is a CRO specializing in preclinical research, discovery and development of new pharmaceutical drugs.

LCK = target: T4, LCK (Homo sapiens, UniProt P06239); assay: Safety47 panel kinase LCK; type: biochemical; details: Inhibitor mode; 3 μM
T4 construct: CEREP (CRO, Safety47 panel)
Excerpt: as §1

ROCK1 = target: T5, ROCK1 (Homo sapiens, UniProt Q13464); assay: Safety47 panel kinase ROCK1; type: biochemical; details: Inhibitor mode; 3 μM
T5 construct: CEREP (CRO, Safety47 panel)
Excerpt: as §1

Sigma σ1 = Sigma σ1 (Homo sapiens, UniProt Q99720); assay: Off-target panel, Sigma σ1; type: binding; details: Conc. 3 μM
Sigma σ1, sequence (Q99720 whole entry): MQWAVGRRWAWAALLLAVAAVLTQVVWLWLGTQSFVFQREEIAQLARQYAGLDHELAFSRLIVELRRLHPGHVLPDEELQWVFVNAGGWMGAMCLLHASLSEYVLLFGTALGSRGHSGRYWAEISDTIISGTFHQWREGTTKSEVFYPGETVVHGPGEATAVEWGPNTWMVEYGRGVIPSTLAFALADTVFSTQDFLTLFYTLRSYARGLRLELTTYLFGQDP

nAChR(a4/b2) = target: T6, nAChR(a4/b2) (Homo sapiens, UniProt P17787+P43681); assay: Safety47 panel ion channel nAChR(a4/b2); type: cell-based; details: 3 μM
T6 construct: CEREP (CRO panel)
T6 sequence (P43681 29-627 limits assumed): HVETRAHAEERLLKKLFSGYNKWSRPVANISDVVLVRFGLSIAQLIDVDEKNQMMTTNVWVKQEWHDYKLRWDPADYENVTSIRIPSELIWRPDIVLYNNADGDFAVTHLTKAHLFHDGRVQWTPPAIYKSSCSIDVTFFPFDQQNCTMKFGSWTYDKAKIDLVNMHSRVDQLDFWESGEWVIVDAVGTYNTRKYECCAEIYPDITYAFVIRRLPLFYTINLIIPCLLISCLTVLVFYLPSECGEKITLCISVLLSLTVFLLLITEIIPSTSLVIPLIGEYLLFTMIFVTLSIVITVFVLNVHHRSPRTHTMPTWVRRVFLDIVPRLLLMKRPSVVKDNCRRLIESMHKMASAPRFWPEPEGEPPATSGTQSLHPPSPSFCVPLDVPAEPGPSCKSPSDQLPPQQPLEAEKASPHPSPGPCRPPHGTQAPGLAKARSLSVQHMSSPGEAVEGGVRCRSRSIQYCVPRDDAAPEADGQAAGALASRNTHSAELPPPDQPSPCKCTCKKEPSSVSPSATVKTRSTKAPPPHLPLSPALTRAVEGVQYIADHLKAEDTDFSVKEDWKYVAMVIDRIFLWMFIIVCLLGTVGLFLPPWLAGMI
T6 sequence (P17787 26-502): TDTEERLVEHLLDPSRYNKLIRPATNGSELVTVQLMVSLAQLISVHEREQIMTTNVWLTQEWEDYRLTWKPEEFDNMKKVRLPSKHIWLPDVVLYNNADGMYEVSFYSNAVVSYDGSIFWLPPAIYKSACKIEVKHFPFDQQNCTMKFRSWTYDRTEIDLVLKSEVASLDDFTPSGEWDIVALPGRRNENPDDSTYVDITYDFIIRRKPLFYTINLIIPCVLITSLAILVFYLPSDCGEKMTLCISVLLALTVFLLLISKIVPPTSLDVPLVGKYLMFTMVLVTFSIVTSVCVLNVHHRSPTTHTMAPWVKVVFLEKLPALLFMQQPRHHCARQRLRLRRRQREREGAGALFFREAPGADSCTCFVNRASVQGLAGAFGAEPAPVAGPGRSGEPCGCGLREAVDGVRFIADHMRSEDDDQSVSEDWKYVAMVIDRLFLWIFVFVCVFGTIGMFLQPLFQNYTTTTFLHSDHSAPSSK
Excerpt: as §1

Histamine H1 = Histamine H1 (Homo sapiens, UniProt P35367); assay: Off-target panel, Histamine H1; type: binding; details: Conc. 3 μM
Histamine H1, sequence (P35367 whole entry): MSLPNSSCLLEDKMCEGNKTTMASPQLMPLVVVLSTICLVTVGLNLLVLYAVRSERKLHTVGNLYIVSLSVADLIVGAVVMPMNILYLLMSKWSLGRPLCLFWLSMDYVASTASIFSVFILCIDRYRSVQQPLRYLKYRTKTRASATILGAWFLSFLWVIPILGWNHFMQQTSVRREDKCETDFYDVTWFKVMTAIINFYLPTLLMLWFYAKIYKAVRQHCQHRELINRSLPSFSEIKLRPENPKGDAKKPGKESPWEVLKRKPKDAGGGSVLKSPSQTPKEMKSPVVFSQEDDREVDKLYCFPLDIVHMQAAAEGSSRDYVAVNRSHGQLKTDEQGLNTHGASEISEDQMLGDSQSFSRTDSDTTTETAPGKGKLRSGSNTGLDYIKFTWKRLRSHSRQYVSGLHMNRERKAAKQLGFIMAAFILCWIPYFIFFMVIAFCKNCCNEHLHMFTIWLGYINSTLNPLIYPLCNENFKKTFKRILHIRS

Adrenergic β1 = Adrenergic β1 (Homo sapiens, UniProt P08588); assay: Off-target panel, Adrenergic β1; type: binding; details: Conc. 3 μM
[1] = target: T7, CHRM2 (muscarinic acetylcholine receptor M2) (Homo sapiens, UniProt P08172); assay: Safety47 panel GPCR CHRM2; type: cell-based
T7 construct: CEREP (CRO that ran the panel)
T7 sequence (P08172 whole entry): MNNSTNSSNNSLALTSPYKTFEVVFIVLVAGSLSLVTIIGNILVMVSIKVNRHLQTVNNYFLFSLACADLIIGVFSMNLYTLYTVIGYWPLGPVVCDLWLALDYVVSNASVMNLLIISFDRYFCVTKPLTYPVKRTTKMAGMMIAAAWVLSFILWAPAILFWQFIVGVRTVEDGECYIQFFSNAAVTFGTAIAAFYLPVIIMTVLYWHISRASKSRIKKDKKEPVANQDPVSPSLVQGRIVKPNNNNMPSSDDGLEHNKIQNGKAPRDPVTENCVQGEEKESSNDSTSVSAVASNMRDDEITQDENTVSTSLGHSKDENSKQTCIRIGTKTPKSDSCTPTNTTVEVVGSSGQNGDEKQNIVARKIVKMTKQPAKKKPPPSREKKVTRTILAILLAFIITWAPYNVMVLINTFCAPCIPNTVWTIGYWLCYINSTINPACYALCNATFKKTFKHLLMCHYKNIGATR
Excerpt: as §1

Muscarinic M2 = Muscarinic M2 (Homo sapiens, UniProt P08172); assay: Off-target panel, Muscarinic M2; type: binding; details: Conc. 3 μM
Muscarinic M2, sequence (P08172 whole entry): as above

Dopamine D2S = Dopamine D2S (Homo sapiens, UniProt P14416); assay: Off-target panel, Dopamine D2S; type: binding; details: Conc. 3 μM
Dopamine D2S, sequence (P14416 1-414 isoform P14416-2): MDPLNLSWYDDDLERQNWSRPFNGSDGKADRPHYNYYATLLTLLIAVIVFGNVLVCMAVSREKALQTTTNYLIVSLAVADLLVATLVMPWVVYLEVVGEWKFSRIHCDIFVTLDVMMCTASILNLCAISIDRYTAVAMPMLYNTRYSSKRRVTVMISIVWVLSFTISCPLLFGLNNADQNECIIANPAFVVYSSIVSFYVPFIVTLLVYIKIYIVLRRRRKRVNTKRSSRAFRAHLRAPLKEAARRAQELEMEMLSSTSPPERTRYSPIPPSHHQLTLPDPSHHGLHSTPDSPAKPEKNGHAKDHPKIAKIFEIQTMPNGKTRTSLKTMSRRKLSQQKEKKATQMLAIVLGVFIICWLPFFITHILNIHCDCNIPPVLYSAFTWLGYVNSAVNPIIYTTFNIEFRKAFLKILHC

ST14A mHTTQ120 cells = assay: Rescue of ST14A mHTTQ120 cells (39° C., serum starved, CellTiter-Glo); type: cell-based, rat; details: 48 hours
Excerpt: Having elucidated the molecular mechanism of LOC14's binding to PDI, we next tested whether PDI modulation with LOC14 would be effective in neurodegenerative disease models. First, we evaluated LOC14's neuroprotection in rat neuron-like PC12 cells stably transfected with an inducible plasmid for truncated mutant huntingtin protein (mHTT^Q103). […] We next evaluated the activity of LOC14 in cells that more closely represent the medium-size spiny neurons affected in Huntington Disease patients. We used rat embryonic day 14 striatal neuronal cells (ST14A) immortalized by transduction of temperature-sensitive SV40 large T antigen (Cattaneo and Conti, 1998; Ehrlich et al. 2001; Rigamonti et al. 2000). Under serum deprivation and at 39° C., where large T antigen is degraded, ST14A cells undergo cell death within 48-72 hours. This death was rescued by treatment with LOC14 (FIG. 13B).

Adrenergic α1A = Adrenergic α1A (Rattus norvegicus, UniProt P43140); assay: Off-target panel, Adrenergic α1A; type: binding; details: Conc. 3 μM
Adrenergic α1A, sequence (P43140 whole entry): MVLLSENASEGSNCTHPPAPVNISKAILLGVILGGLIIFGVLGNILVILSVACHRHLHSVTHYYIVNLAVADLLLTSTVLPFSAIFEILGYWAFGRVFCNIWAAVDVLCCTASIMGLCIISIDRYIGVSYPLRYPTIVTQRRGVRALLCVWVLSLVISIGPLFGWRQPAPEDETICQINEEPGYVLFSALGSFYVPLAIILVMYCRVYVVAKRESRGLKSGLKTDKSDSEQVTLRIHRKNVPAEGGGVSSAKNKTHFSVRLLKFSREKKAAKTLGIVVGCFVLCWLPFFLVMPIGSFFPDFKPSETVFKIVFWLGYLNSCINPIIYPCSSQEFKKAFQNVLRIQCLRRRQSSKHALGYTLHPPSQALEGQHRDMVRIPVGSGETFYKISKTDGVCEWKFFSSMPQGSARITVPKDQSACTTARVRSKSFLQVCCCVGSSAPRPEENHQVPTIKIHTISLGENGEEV

Adrenergic α2A = Adrenergic α2A (Homo sapiens, UniProt P08913); assay: Off-target panel, Adrenergic α2A; type: binding; details: Conc. 3 μM
Adrenergic α2A, sequence (P08913 whole entry): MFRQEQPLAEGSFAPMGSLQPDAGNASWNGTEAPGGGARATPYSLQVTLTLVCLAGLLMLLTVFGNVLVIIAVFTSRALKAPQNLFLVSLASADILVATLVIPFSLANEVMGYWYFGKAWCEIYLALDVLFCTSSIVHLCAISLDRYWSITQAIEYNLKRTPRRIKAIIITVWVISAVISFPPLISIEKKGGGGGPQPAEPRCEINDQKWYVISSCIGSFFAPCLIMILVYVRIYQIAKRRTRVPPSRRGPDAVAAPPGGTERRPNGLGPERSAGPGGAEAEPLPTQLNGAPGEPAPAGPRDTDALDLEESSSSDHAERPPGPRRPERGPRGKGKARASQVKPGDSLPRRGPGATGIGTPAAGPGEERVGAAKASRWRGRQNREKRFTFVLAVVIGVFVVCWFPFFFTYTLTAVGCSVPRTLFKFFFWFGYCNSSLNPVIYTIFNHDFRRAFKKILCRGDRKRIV

Adenosine A2A = Adenosine A2A (Homo sapiens, UniProt P29274); assay: Off-target panel, Adenosine A2A; type: binding; details: Conc. 3 μM
Adenosine A2A, sequence (P29274 whole entry): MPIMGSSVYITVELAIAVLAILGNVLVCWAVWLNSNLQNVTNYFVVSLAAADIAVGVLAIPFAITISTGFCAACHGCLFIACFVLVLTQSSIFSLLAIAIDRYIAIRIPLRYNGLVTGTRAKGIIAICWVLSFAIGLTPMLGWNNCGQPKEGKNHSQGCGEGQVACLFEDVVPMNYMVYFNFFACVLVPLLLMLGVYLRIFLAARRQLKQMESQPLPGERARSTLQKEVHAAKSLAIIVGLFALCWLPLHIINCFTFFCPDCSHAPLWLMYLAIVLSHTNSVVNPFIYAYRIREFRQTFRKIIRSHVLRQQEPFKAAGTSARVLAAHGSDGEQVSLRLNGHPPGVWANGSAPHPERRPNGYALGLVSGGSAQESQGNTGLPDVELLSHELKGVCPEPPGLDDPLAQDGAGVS

Structure (SMILES) | change in mass of wild-type PDIa (MALDI-TOF) (wild-type PDIa) | chemical shift changes in PDIa (1H-15N HSQC) (15N-labeled PDIa) | inhibition of the five isoforms of CYP450 (five isoforms of CYP450) | Average (GR; Agonist mode) | Average (GR; Antagonist mode) | Average (LCK) | Average (ROCK1) | inhibition at 3 µM (Sigma σ1) [%] | Average (nAChR(a4/b2); Blocker mode) | Average (nAChR(a4/b2); Opener mode) | inhibition at 3 µM (Histamine H1) [%] | inhibition at 3 µM (Adrenergic β1) [%] | activity (response) against muscarinic acetylcholine receptor M2 [1] | inhibition at 3 µM (Muscarinic M2) [%] | inhibition at 3 µM (Dopamine D2S) [%] | EC100 (ST14A mHTTQ120 cells) [nM] | inhibition at 3 µM (Adrenergic α1A) [%] | inhibition at 3 µM (Adrenergic α2A) [%] | inhibition at 3 µM (Adenosine A2A) [%]
O=C(C1CC1)N1CCN(Cn2sc3c(F)cccc3c2=O)CC1 [LC-43] | no change in mass | same chemical shift changes in the active site as induced by LOC14 | does not show any inhibition | – | – | – | – | – | – | – | – | – | – | – | – | – | – | – | –
O=C(C1CC1)N1CCN(Cn2sc3ccccc3c2=O)CC1 [LOC14] | – | – | – | 0.0 | 0.1 | 16.1 | 13.5 | -8 | 10.1 | 0.0 | 27 | 7 | < 95% and 70% | -3 | 0 | 6 | -14 | 7 | -4

— patent publication US20220380383A1, “NEUROPROTECTIVE PDI MODULATING SMALL MOLECULES AND METHODS OF USE THEREOF” (THE TRUSTEES OF COLUMBIA UNIVERSITY IN THE CITY OF NEW YORK, priority 2018, published 2022)
